Where two headings read alike, the source gives them in different places.

For one assay, the target named is T1, CCK receptor (Pancreas) (Rattus norvegicus, UniProt P30551).
T1 construct: The whole pancreas was dissected free of fat tissue and was homogenized; from tissue; host or cells: rat whole pancreas (male Sprague-Dawley), membrane homogenate
T1 sequence (P30551 1-444): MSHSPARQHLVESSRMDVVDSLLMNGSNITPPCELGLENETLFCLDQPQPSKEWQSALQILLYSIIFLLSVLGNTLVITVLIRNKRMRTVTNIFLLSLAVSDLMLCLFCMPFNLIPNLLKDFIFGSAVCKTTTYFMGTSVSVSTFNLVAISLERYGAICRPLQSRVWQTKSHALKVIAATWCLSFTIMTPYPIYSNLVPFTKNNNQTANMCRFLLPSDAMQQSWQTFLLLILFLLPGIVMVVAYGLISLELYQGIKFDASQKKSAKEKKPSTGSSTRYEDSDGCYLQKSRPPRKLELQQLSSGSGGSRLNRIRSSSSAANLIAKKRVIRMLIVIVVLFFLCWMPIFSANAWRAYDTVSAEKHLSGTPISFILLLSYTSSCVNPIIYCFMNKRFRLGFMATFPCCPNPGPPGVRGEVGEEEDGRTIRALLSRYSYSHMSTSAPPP
In words: CCK Receptor Binding (Pancreas), displacement of 125I-CCK-8. To be noted: rat pancreas membranes, 125I-CCK-8 50 pM; for IC50: 25° C., 2 hours. Details: species or system rat (male Sprague-Dawley). The protocol:
CCK-8 sulphated was radiolabelled with ^125 I-Bolton Hunter reagent (2000 Ci/mmole). Receptor binding was performed according to Chang and Lotti (Proc. Natl. Acad. Sci. 83, 4923-4926, 1986) with minor modifications.
Male Sprague-Dawley rats (150-200 g) were sacrificed by decapitation. The whole pancreas was dissected free of fat tissue and was homogenized in 25 volumes of ice-cold 10 mM N-2-hydroxyethyl-piperazine-N'-2-ethane sulphonic acid (HEPES) buffer with 0.1% soya bean trypsin inhibitor (pH 7.4 at 25° C. ) with a Kinematica Polytron. The homogenates were centrifuged at 47,800 g for 10 min. Pellets were resuspended in 10 volumes of binding assay buffer (20mM (HEPES)), 1 mM ethylene glycol-bis-(β-aminoethylether-N,N'-tetraacetic acid) (EGTA), 5 mM MgCl2, 150 mM NaCl, bacitracin 0.25 mg/ml, soya bean trypsin inhibitor 0.1 mg/ml, and bovine serum albumin 2 mg/ml pH 6.5 at 25° C.) using a Teflon (trademark). homogenizer, 15 strokes at 500 rpm. The homogenate was further diluted in binding assay buffer to give a final concentration of 0.5 mg original wet weight/1 ml buffer. […] All assays were run in.duplicate. The reaction mixtures were incubated at 25° C. for 2 hours and the reaction terminated by rapid filtration (Brandell 24 well cell harvester) over Whatman GF/C filters, washing 3×4 mls with ice-cold 100 Mm NaCl. The radioactivity on the filters was counted with a LKB gamma counter.
(§1) Drug displacement studies were performed with at least 10 concentrations of compounds of Formula I and the IC50 values were determined by regression analysis IC50 refers to the concentration of the compound required to inhibit 50% of specific binding of ^125 I-CCK-8.
Background: Loss of bound radioactivity is the signal in a displacement assay; it reports binding, not function.

In another assay the target is T2, CCK receptor (Brain) (Cavia porcellus, UniProt H0VZC5).
T2 construct: the cortex was removed and homogenized in 25 mL ice-cold 0.32M sucrose; from tissue; host or cells: guinea pig cortex (male Hartley), P2 membrane pellet
T2 sequence (H0VZC5 1-426): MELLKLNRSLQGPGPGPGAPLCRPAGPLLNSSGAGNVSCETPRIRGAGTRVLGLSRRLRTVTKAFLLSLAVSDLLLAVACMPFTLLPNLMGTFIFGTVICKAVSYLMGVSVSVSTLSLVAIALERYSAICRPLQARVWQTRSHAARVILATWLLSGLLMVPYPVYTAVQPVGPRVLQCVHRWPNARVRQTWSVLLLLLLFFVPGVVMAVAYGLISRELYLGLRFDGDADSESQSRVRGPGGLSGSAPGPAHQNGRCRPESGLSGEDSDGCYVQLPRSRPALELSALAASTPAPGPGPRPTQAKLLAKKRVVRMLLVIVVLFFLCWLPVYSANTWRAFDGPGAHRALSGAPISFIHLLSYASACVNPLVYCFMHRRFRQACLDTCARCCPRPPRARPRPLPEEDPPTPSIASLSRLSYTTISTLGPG
The assay can be described thus: biochemical. It counts as binding, guinea pig (male Hartley), cortex. The procedure:
CCK-8 sulphated was radiolabelled and the binding was performed according to the description for the pancreas method with minor modifications.
Male Hartley guinea pigs (300-500 g) were sacrificed by decapitation and the cortex was removed and homogenized in 25 mL ice-cold 0.32M sucrose. The homogenates were centrifuged at 1000 g for 10 minutes and the resulting supernatant was recentrifuged at 20,000 g for 20 minutes. The P2 pellet was resuspended in binding assay buffer (20 mM HEPES, 5 mM MgCl2, 0.25 mg/ml bacitracin, 1 mM EGTA pH 6.5 at 25° C. ), using a Teflon (trademark) homogenizer (5 strokes at 500 rpm) to give a final concentration of 10 mg original wet weight/1.2 ml buffer. […] All assays were run in duplicate. The reaction mixtures were incubated at 25° C. for 2 hours and then the reaction was terminated by rapid filtration (Brandell 24 well cell harvester) on Whatman GF/C filters with 3×5 ml washes of cold 100 mM NaCl. The radioactivity on the filters was counted with a LKB gamma counter.
as §1

A further assay concerns the target T3, Gastrin receptor (Cavia porcellus, UniProt H0VZC5).
T3 construct: from tissue; host or cells: guinea pig gastric mucosal glands (male Hartley), isolated with collagenase
T3 sequence (H0VZC5 1-426): T2 sequence (H0VZC5 1-426)
The assay can be described thus: Gastrin Receptor Binding in Guinea Pig Gastric Glands, displacement of 125I-gastrin. On the set-up: species or system guinea pig (male Hartley). The following applies: 125I-gastrin 0.1 nM, 25° C., 30 minutes. The procedure:
Gastrin antagonist activity of compounds of Formula I was determined using the following assay.
Guinea pig gastric mucosal glands were prepared by the procedure of Chang et. al., Science, 230, 177-179 (1985) with slight modifications. […] The tissues were passed twice through a 5 ml syringe to liberate the gastric glands, and then filtered through Nitex (trademark) #202 gauge nylon mesh. The filtered glands were centrifuged at 272 g for 5 minutes and washed twice by resuspension in 25 ml buffer and centrifugation.
The washed guinea pig gastric glands prepared as above were resuspended in 25 ml of standard buffer. For binding studies, to 250 μl of gastric glands, 30 μl of buffer (for total binding) or gastrin (3 μM final concentration, for nonspecific binding) or test compound and 20 μl of ^125 I-gastrin (NEN, 2200 Ci/mmole, 0.1 nM final concentration) were added. All assays were run in triplicate. […] The reaction mixtures, after incubation at 25° C. for 30 minutes in a shaking water bath were rapidly filtered (Brandell 24 well cell harvester) over Whatman G/F B filters presoaked in assay buffer and immediately washed further with 3×4 ml of 100 mM ice cold NaCl. The radioactivity on the filters was measured using a LKB gamma counter.

Setting [1] is: 125I-CCK-8 50 pM, guinea pig cortex membranes, 25° C., 2 hours, read-out: IC50, 125I-CCK Brain.

Consider `CC(C)CN1C(=O)C(NC(=O)Nc2cccc(-c3nn[nH]n3)c2)N=C(C2CCCCC2)c2ccccc21` (racemic) [Example 2, N-[3(R,S)-5-Cyclohexyl-2,3-dihydro-1-(2-methylpropyl)-2-oxo-1H-1,4-benzodiazepin-3-yl] N'-[3-tetrazol-5-ylphenyl]urea], for which the “% (inhibition of 125I-CCK binding) Pancreas” value at CCK receptor (Pancreas) (at 3 μM) stood at 27%.
For `CN1C(=O)C(NC(=O)Nc2cccc(S(=O)(=O)Nc3cnccn3)c2)N=C(C2CCCCC2)c2ccccc21` (racemic) [Example 22, N-[3(R,S)-5-Cyclohexyl-2,3-dihydro-1-methyl-2-oxo-1H-1,4-benzodiazepin-3-yl] N'-[3-(2-pyrazinylaminosulphonyl)phenyl]urea], the IC50 on CCK receptor (Pancreas) was determined as 70 nM; on CCK receptor (Brain) (setting [1]), 6.8 nM.
The corresponding values for `CN1C(=O)C(NC(=O)Nc2cccc(C(=O)NS(=O)(=O)C(C)(C)C)c2)N=C(C2CCCCC2)c2ccccc21` (racemic) [Example 31, N-[3(R,S)-5-Cyclohexyl-2,3-dihydro-1-methyl-2-oxo-1H-1,4-benzodiazepin-3-yl]N'-[3-(1,1-dimethylethylsulphonylaminocarbonyl)phenyl]urea] are 6.2 nM and 0.22 nM.
In the case of `CN1C(=O)C(NC(=O)Nc2cccc(C(=O)NS(=O)(=O)C(C)(C)C)c2)N=C(C2CCCC2)c2ccccc21` (racemic) [Example 39, N-[3(R,S)-5-Cyclopentyl-2,3-dihydro-1-methyl-2-oxo-1H-1,4-benzodiazepin-3-yl]N'-[3-(1,1-dimethylethylsulphonylaminocarbonyl)phenylurea], the IC50 stood at 1.18 nM at Gastrin receptor, 270 nM at CCK receptor (Pancreas) and 0.56 nM at CCK receptor (Brain) (setting [1]).
On to `CN1C(=O)C(NC(=O)Nc2cccc([S+](C)[O-])c2)N=C(C2CCCCC2)c2ccccc21` (racemic) [Example 42, N-[3(R,S)-5-Cyclohexyl-2,3-dihydro-1-methyl-2-oxo-1H-1,4-benzodiazepin-3-yl]N'-[3(R,S)-(methylsulphinyl)phenyl]urea], for which the IC50 turned out to be 18 nM at CCK receptor (Pancreas) and 15 nM against CCK receptor (Brain).

As a reminder, the IC50 is the point on the concentration scale where inhibition reaches its midpoint.

For the origin of these results see patent US5360802A, “Benzodiazepine derivatives, compositions containing them and their use in therapy” (priority 1992, dated 1994).
